Patent US8946382B2, “Apelin peptides and methods of use” (The United States of America, as represented by the …, priority 2009, dated 2015)
“Also recorded” adds a separate entry of the source. Where no end group is shown, it is not given here. The star is where a group is joined. Biotin = O=C1N[C@H]2[C@H](CS[C@H]2CCCCC(=O)*)N1

Columns and labels:
[1] = system: human lung cancer cell line A549; test: Proliferation assay (ATPLITE), A549; type: cell-based
Description: (§1) Proliferation response profiles of apelin, salcut-NH2, salcut-Gly, and/or salcut-OH on a variety of endothelial and tumor cell lines or primary endothelial cells were obtained using the following method. Human blood vessel endothelial cells (HMEC-1), human primary microvascular dermal EC (dB1), human lymphatic endothelial cells (LEC), human mast cells (HMC-1), human breast cancer cells (MCF-7; T47D), human gastric cancer cells (HTB 103), human lung cancer cells (A549), monkey endothelial cells (CRL 1780), and porcine aortic endothelial cells (PAE) were seeded at 25,000 cells per well at 50 μl volume in appropriate media containing 0.5% serum in a 96 well plate. After overnight incubation the peptide was added in serum free media and cells were incubated for 3-5 days. To measure growth proliferation, the adenosine triphosphate ATPLITE™ one-step assay (PerkinElmer), which is based on firefly luciferase and has high sensitivity for quantification of viable cells, was used. Data were expressed as mean plus minus standard deviation. Statistical analyses were performed using Student's t-test, p values less than 0.05 were considered statistically significant.

[2] = system: human gastric cancer cell line HTB-103; test: Proliferation assay (ATPLITE), HTB 103; type: cell-based; conditions: FIG. 5
Description: as §1

[3] = system: porcine aortic endothelial (PAE) cells; test: In vitro tube formation assay; type: cell-based
Method: Porcine aortic endothelial (PAE) cells were stably transfected with Green Fluorescent Protein (GFP) and seeded at a concentration of 18,000 cells per well of a 96-well culture plate. The wells were coated with […] basement membrane matrix (Invitrogen, CA). Cells were resuspended in medium at a concentration of 2.25×10^5 to 2.5×10^5 cells/ml. An […] (18,000-20,000) cells were added per well. Positive control cells were cultured with medium supplemented with 1.0% fetal bovine serum (FBS). Negative control cells were cultured with serum-free medium. […] After three or more hours of incubation, cells were assessed for tube formation and were photographed. Assays were performed in triplicate.

[4] = system: endothelial and tumor cell lines or primary endothelial cells; test: Proliferation response (ATPLITE one-step assay) on a variety of endothelial and tumor cell lines; type: cell-based; conditions: 3E
Description: as §1

[5] = system: human mast cell line HMC-1; test: Proliferation assay (ATPLITE), HMC-1; type: cell-based; conditions: FIG. 5
Description: as §1

[6] = system: MDA-MB-345 cells; test: Binding of biotinylated salcut-NH2 to cells (fluorescent labeling); type: cell-based, human
[7] = system: human breast cancer cell line MCF-7; test: Proliferation assay (ATPLITE), MCF-7; type: cell-based; conditions: 1 nM to 1 μM dose range; FIG. 4A
Description: as §1

[8] = system: A549 human bronchioloalveolar cancer cells; test: Nude mouse xenograft study; type: in vivo, nude mice; conditions: 10 μM
Method: (§2) Six week old female nude mice were used in this study; ten mice were used per test group. A549 human bronchioloalveolar cancer cells were cultured at the SAIC/Frederick facility. 1×10^7 A549 cells were injected subcutaneously in the hindquarter of each nude mouse. The following treatment regime was started seven days following tumor injection: Group 1—PBS control; Group 2—salcut-NH2 peptide (10 μM). Appropriate Groups were treated with 25 μl injections at four corners around the tumor, three times per week for five weeks. Mice were inspected, weighed, and tumors measured (H×W×L) three times per week with calipers. Following completion of the experiment, mice were euthanized, tumors excised, and cut into four pieces. Two segments were frozen and stored at −80° C. and two segments were paraffin embedded for pathology.
as §2, with “In another experiment, six” for “Six”, “(10 pM); Group 3—salcut-NH2 peptide (10 nM); Group 4—salcut-NH2 peptide (10” for “(10”, “100” for “25”, “intraperitoneally,” for “at four corners around the tumor,”, “four” for “five”

[9] = system: rat aortic ring; test: Rat aortic ring assay (vessel outcropping); type: cell-based
Method: On day 0, rats were euthanized and decapitated, and aortas were harvested and transferred to a culture dish containing EGM-2 with growth factors (20 ml media; Clonetics). Fibroadipose tissue and other non-aortic tissue were removed. Using dissecting microscope, the aorta was sectioned into 1 mm-long rings. Aortic rings were then rinsed 6-8× with EGM-2 with growth factors. Aortic rings were each placed in the center of a matrix (GELTREX™; Invitrogen Corp)-coated culture well. Aortic tissue was covered with 250 μl GELTREX™ and each well was incubated with 1 ml EGM-2 with growth factors supplemented for 24 hours at 37° C., 5% CO2.
On day 1, media with growth factors was removed, 250 μl of media (without growth factors) with either 0.1 nM, 1.0 nM, or 10 nM of salcut-NH2 was added to each well and incubated at 37° C., 5% CO2 for 5-7 days.

[10] = system: human blood vessel endothelial (HMEC-1) cells; test: Proliferation assay (ATPLITE), HMEC-1; type: cell-based; conditions: FIGS. 3E, 3F, 6
Description: as §1
Endothelial cell proliferation assays were performed as described above with both spontaneously immortalized porcine aortic endothelial (PAE) cells and SV40 immortalized human dermal microvascular endothelial (HMEC-1).

[11] = system: human breast cancer cell line MDA-MB-435; test: Proliferation assay, MDA-MB-435; type: cell-based; conditions: for proliferative response over dose range: dose range of 1 nM to 1 uM; for relative potency in proliferation assays: salcut-NH2 of two manufacturers vs biotinylated salcut, FIG. 14A-14C
Description: An N-terminal biotinylated salcut-NH2 ligand was synthesized (a single biotin moiety was attached to the amino-terminal leucine residue). Validity of the chemical composition of the biotinylated salcut-NH2 was accomplished using amino acid sequence analysis and MADLI-TOF mass spectrometry characterization.

[12] = biological target: T1, apelin G protein receptor (known as APJ) (Homo sapiens, UniProt P35414); conditions: Tatemoto et al. 1998; cited from earlier work
T1 sequence (P35414 1-380): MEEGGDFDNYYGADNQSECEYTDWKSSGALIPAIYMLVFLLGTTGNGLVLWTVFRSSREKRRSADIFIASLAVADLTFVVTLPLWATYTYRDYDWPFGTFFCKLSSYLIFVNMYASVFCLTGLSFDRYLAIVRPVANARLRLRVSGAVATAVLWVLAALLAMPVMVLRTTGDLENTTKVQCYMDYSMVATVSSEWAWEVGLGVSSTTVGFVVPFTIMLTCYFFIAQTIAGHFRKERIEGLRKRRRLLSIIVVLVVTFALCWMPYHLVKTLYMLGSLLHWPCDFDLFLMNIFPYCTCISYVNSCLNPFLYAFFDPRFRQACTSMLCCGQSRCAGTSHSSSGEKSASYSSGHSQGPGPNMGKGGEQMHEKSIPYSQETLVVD

[13] = biological target: T2, APJ receptor (Homo sapiens, UniProt P35414); conditions: cited from earlier work
T2 sequence (P35414 1-380): T1 sequence (P35414 1-380)

salcut-NH2: amide derivative of human apelin-36 (42-57), sixteen amino acid peptide from residues 42-57 of apelin preproprotein (LVQPRGSRNGPGPWQG-NH2)
effect on proliferation (stimulation) ([1]; 10 nM to 100 pM range, FIG. 3D): neither apelin-13 (65-77) nor salcut-NH2 affect proliferation; also recorded: does not stimulate proliferation
effect on proliferation at higher concentrations ([1]; higher concentrations, 1 nM to 1 μM dose range (FIG. 4B)): lack of a statistically significant proliferative response; also recorded: cell growth suppressive effect at higher concentrations; also recorded: did not respond in a statistically significant manner
proliferative dose response [2]: biphasic response curves; also recorded: biphasic (rise and fall) response
concentration at which a suppressive effect on tube formation was observed [3]: exceeding 10 nM
concentration having a suppressive effect on cell proliferation ([4]; FIGS. 3A-3D, 3G, 3I-3O): ≥ 10 nM
cell proliferation (relative luminescent units [RLU]) ([4]; compared to cells cultured in the absence of these compounds (0 Rx), FIGS. 3A-3C, 3G-3O): increases
proliferative dose response [5]: biphasic response curves; also recorded: only responded to lower concentrations of salcut-NH2 by stimulating proliferation
inhibition of binding of biotinylated salcut-NH2 to cells ([6]; unlabeled peptide in the presence of biotinylated salcut-NH2): can be inhibited
proliferative dose response [7]: biphasic response curve; also recorded: biphasic (rise and fall) response
tumor growth ([8]; 10 pM, 10 nM, 100 μl intraperitoneally, three times per week for four weeks, compared to PBS, FIG. 12): reduced tumor growth
tumor growth ([8]; 25 μl injections at four corners around the tumor, three times per week for five weeks, compared to PBS): dramatic reduction in tumor growth
tumor growth ([8]; 100 μl intraperitoneally, three times per week for four weeks): highly statistically significant (<0.005) suppression of tumor growth
number of vessels forming from the aortic ring ([9]; 0.1 nM, 1.0 nM, 10 nM, 5-7 days, FIG. 9): number of vessels formed increase with increasing concentration; also recorded: increased number of vessels forming from the aortic ring
vessel formation within the aortic ring ([9]; 10 nM dose): Vessels begin to form with the ring; also recorded: vessels were beginning to form within the aortic ring
effect on HMEC-1 proliferation [10]: biphasic response curve; also recorded: potent stimulators of HMEC-1 proliferation; also recorded: biphasic (rise and fall) response
proliferative response over dose range [11]: large change in response
relative potency in proliferation assays [11]: equipotent in proliferation assays

(Ala13)-apelin-13 [reference compound]
effect of antagonist on endothelial cell tube formation ([3]; in the presence of 1 nM apelin-13, FIG. 8): inhibited endothelial cell tube formation

apelin-17
potency of peptide-induced acidification rates [12]: moderately potent
binding to the APJ receptor [13]: can bind the APJ receptor

salcut-OH: human apelin-36 (42-57), the free-acid derivative of salcut (LVQPRGSRNGPGPWQG-OH)
effect on HMEC-1 proliferation [10]: minor effect on proliferation; also recorded: do not have a statistically significant effect on cell growth
effect on HMEC-1 proliferation ([10]; listed as Salcut-OH): non-responsive over the dose range tested
effect on HMEC-1 proliferation ([10]; listed as salcut OH): no effect on HMEC-1 cell proliferation

biotinylated salcut: N-terminal biotinylated salcut-NH2 ligand; a single biotin moiety attached to the amino-terminal leucine residue (Biotin-LVQPRGSRNGPGPWQG-NH2; SMILES CC(C)C[C@H](NC(=O)CCCC[C@@H]1SC[C@@H]2NC(=O)N[C@@H]21)C(=O)N[C@H](C(=O)N[C@@H](CCC(N)=O)C(=O)N1CCC[C@H]1C(=O)N[C@@H](CCCNC(=N)N)C(=O)NCC(=O)N[C@@H](CO)C(=O)N[C@@H](CCCNC(=N)N)C(=O)N[C@@H](CC(N)=O)C(=O)NCC(=O)N1CCC[C@H]1C(=O)NCC(=O)N1CCC[C@H]1C(=O)N[C@@H](Cc1c[nH]c2ccccc12)C(=O)N[C@@H](CCC(N)=O)C(=O)NCC(N)=O)C(C)C)
binding to cells (fluorescent labeling) [6]: high intensity fluorescent labeling
proliferative response over dose range [11]: large change in response
relative potency in proliferation assays [11]: equipotent in proliferation assays

salcut-Gly: glycine-extended form of human apelin-36 (42-57) (LVQPRGSRNGPGPWQGG; homo sapiens)
effect on HMEC-1 proliferation [10]: non-responsive over the dose range tested; also recorded: minor effect on proliferation; also recorded: do not have a statistically significant effect on cell growth
effect on HMEC-1 proliferation ([10]; listed as salcut Gly): no effect on HMEC-1 cell proliferation
